The values that follow come from patent publication US9006232B2, “Pyrimidone derivatives” (Mitsubishi Tanabe Pharma Corporation, priority 2009, dated 2015).

The structures appear in SMILES notation.

Sequence of bovine cerebral TPK1 (A0A059UE90 1-419): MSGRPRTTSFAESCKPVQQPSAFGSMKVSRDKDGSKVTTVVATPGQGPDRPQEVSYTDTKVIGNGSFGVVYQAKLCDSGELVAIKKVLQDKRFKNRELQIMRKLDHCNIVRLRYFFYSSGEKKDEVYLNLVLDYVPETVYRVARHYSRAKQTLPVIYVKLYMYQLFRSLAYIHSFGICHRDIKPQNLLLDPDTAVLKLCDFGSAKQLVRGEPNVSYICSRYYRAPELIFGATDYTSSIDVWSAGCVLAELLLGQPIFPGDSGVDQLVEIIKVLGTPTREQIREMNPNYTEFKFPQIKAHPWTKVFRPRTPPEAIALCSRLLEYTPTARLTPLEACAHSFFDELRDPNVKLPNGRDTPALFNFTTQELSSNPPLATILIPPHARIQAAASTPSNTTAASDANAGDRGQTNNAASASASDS

This test concerns the target bovine cerebral TPK1 (Bos taurus, UniProt A0A059UE90). In words: Inhibitory activity against P-GS1 phosphorylation by bovine cerebral TPK1. In kind it is biochemical. As to conditions: P-GS1 phosphorylation, 41.7 μM [γ-32P] ATP, 25° C., 2 hours; read-out: IC50.
Consider `Cn1c(OC2CCN(c3ccc(CN4CCCCC4)cc3)CC2)nc(-c2ccncn2)cc1=O` [1.214, 1-Methyl-2-[1-(4-piperidin-1-ylmethyl-phenyl)piperidin-4-yloxy]-1H-[4,4′]bipyrimidinyl-6-one], for which the IC50 was found to be 16.1 nM.
For `Cn1c(OC[C@H]2CCCN2C(=O)Oc2ccccc2)nc(-c2ccncn2)cc1=O` [Compound No. 2.201, Phenyl (2R)-2-(1-methyl-6-oxo-1,6-dihydro-[4,4′]bipyrimidinyl-2-yloxymethyl)pyrrolidine-1-carboxylate] the value was 56.4 nM.
The result for `CN1CCN(c2ccc(N3CCC(Oc4nc(-c5ccncn5)cc(=O)n4C)CC3)cc2)CC1` [1.209, 1-Methyl-2-{1-[4-(4-methyl-piperazin-1-yl)phenyl]piperidin-4-yloxy}-1H-[4,4′]bipyrimidinyl-6-one] reads 17.9 nM.
On to `Cn1c(OC2CCN(c3ccc(CN4CCN(C(=O)OC(C)(C)C)CC4)cc3)CC2)nc(-c2ccncn2)cc1=O` [Compound No. 1.201, tert-Butyl 4-{4-[4-(1-methyl-6-oxo-1,6-dihydro-[4,4′]bipyrimidinyl-2-yloxy)piperidin-1-yl]benzyl}piperazine-1-carboxylate], for which the IC50 stood at 19.1 nM.
As for `Cn1c(OC2CCN(CCC3CCNCC3)CC2)nc(-c2ccncn2)cc1=O` [Compound No. 1.501, 1-Methyl-2-[1-(2-piperidin-4-yl-ethyl)piperidin-4-yloxy]-1H-[4,4′] bipyrimidinyl-6-one], the IC50 came out at 69 nM.
